# Test results published in article PMC9920254 (Molecules, 2023).
# Legend:
# UGT1A1 = target: T1, UGT1A1 (Rattus norvegicus, UniProt Q64550); assay: Chemical inhibition assay of PND metabolism in RLM, UGT1A1 inhibitor; type: in vitro ADME; conditions: liver microsomes, pH 7.4, probe PND (2 µM), overall metabolism of PND, bilirubin 100 μM
# T1 construct: rat liver microsomes (RLMs) were prepared with 6 Sprague-Dawley males (6–8 weeks); from tissue; host or cells: liver microsomes of male Sprague-Dawley rats, prepared in house
# T1 sequence (Q64550 30-535): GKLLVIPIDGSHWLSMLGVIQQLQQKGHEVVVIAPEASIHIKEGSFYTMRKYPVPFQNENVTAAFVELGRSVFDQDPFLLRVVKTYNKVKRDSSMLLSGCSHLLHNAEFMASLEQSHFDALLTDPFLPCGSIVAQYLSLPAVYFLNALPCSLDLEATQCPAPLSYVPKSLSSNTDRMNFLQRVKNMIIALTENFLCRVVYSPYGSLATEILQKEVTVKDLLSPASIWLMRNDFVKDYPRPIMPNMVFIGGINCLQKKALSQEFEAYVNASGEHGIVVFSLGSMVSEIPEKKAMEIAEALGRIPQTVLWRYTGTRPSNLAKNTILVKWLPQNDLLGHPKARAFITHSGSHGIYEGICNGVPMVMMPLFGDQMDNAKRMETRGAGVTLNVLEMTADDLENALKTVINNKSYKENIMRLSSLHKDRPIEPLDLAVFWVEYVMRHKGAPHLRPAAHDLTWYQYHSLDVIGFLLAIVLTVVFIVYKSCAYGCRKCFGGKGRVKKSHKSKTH
# CYP2E1 = assay: Chemical inhibition assay of PND metabolism in LMs, CYP2E1 inhibitor; type: in vitro ADME, rat, mouse and human; conditions: disulfiram 50 μM (CYP2E1 inhibitor), PND 2 µM, LMs 0.5 mg protein/mL
# CYP3A4 = assay: in vitro; conditions: male, Sprague-Dawley (rat), Kunming (mouse), human, liver microsomes, probe PND (2 µM)
# UGT1A9 = target: T2, UGT1A9 (Homo sapiens, UniProt O60656); assay: Chemical inhibition assay of PND metabolism in HLM, UGT1A9 inhibitor; type: in vitro ADME; conditions: liver microsomes, probe PND (2 µM), overall metabolism of PND, niflumic acid 5 μM
# T2 construct: Male Mongolia human microsomes (HLM), prepared from 30 male donors (19–78 years old); tissue RILD Liver Disease Research Co., Ltd. (Shanghai, China); host or cells: pooled human liver microsomes, 30 male donors
# T2 sequence (O60656 26-530): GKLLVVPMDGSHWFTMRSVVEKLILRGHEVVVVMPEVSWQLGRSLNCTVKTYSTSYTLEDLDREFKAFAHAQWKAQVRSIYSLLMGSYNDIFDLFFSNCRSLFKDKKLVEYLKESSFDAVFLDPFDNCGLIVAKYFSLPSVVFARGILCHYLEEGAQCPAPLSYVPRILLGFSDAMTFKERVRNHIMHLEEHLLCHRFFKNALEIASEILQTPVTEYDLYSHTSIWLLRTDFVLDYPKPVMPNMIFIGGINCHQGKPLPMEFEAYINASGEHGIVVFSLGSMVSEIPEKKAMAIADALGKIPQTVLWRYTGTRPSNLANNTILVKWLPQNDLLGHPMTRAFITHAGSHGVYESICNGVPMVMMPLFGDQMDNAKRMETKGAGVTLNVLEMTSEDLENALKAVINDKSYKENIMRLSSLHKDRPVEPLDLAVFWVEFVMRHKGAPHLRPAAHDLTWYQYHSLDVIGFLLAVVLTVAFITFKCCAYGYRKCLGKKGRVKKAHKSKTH
# CYP2C9 (CYP2C6) = assay: in vitro; conditions: male, Sprague-Dawley (rat), Kunming (mouse), human, liver microsomes, probe PND (2 µM)
# UGT1A6 [1] = target: T3, UGT1A6 (Mus musculus, UniProt Q64435); assay: Chemical inhibition assay of PND metabolism in MLM, UGT1A6 inhibitor; type: in vitro ADME; conditions: liver microsomes, pH 7.4, probe PND (2 µM), overall metabolism of PND, troglitazone 250 μM
# T3 construct: Mouse liver microsomes (MLM) were prepared with 10 Kunming males (6–8 weeks); from tissue; host or cells: liver microsomes of male Kunming mice, prepared in house
# T3 sequence (Q64435 27-531): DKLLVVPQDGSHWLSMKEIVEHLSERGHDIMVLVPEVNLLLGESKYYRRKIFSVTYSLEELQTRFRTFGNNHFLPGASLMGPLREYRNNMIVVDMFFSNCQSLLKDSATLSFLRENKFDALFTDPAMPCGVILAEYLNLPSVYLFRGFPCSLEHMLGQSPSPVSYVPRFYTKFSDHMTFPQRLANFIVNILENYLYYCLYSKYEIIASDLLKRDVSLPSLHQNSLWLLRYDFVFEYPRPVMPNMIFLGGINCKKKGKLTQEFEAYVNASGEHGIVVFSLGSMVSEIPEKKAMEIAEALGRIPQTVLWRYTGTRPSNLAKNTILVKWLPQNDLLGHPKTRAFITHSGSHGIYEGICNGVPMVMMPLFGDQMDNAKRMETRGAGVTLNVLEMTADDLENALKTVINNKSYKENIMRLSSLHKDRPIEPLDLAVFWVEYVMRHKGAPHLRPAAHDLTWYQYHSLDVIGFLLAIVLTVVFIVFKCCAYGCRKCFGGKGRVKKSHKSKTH
# UGT1A6 [2] = target: T4, UGT1A6 (Homo sapiens, UniProt P19224); assay: Chemical inhibition assay of PND metabolism in human LMs, UGT1A6 inhibitor; type: in vitro ADME; conditions: liver microsomes, probe PND (2 µM), overall metabolism of PND, troglitazone 250 μM
# T4 construct: Male Mongolia human microsomes (HLM), prepared from 30 male donors (19–78 years old); tissue RILD Liver Disease Research Co., Ltd. (Shanghai, China); host or cells: pooled human liver microsomes, 30 male donors
# T4 sequence (P19224 27-532): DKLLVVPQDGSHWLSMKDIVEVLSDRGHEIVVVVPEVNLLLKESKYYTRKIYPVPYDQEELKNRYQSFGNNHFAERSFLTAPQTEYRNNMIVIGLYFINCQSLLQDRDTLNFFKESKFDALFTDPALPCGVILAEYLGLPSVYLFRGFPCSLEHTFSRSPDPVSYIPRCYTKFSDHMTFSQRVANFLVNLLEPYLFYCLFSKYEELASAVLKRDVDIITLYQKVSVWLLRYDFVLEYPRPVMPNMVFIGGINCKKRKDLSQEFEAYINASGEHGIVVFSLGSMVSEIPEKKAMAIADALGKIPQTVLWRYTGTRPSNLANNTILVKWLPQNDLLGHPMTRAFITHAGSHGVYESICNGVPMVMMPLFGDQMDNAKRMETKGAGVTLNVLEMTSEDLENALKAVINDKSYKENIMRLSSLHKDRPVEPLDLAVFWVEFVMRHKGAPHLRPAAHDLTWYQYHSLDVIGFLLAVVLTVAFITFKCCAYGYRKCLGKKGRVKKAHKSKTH
# UGT1A6 [3] = target: T5, UGT1A6 (Rattus norvegicus, UniProt P08430); assay: Chemical inhibition assay of PND metabolism in RLM, UGT1A6 inhibitor; type: in vitro ADME; conditions: liver microsomes, pH 7.4, probe PND (2 µM), overall metabolism of PND, troglitazone 250 μM
# T5 construct: rat liver microsomes (RLMs) were prepared with 6 Sprague-Dawley males (6–8 weeks); from tissue; host or cells: liver microsomes of male Sprague-Dawley rats, prepared in house
# T5 sequence (P08430 26-529): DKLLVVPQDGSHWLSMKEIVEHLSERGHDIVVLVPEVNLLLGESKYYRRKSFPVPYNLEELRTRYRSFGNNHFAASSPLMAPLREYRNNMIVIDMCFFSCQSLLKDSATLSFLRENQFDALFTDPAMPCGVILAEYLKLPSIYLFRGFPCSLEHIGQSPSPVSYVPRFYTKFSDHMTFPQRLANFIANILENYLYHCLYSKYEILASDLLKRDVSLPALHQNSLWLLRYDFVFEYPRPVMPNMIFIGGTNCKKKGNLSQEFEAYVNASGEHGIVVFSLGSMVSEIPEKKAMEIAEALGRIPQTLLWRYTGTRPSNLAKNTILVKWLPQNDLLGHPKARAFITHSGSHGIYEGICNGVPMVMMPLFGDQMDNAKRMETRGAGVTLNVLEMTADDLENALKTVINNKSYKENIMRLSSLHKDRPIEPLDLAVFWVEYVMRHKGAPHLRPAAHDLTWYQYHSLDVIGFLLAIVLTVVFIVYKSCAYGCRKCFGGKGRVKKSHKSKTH
smiles,measurement,setting,value
C=CC1=C(C)/C(=C/c2[nH]c(Cc3[nH]c(/C=C4\NC(=O)C(C)=C4C=C)c(C)c3CCC(=O)O)c(CCC(=O)O)c2C)NC1=O [bilirubin],"inhibition at 90 min, 100 μM",UGT1A1,64.3%
CCN(CC)C(=S)SSC(=S)N(CC)CC [disulfiram],Effect on metabolism of PND in LMs,CYP2E1,decreased significantly
CC(=O)N1CCN(c2ccc(OCC3COC(Cn4ccnc4)(c4ccc(Cl)cc4Cl)O3)cc2)CC1 (centres unmarked) [ketoconazole],inhibition at 2 µM,CYP3A4,19 to 48%
O=C(O)c1cccnc1Nc1cccc(C(F)(F)F)c1 [niflumic acid],"inhibition at 90 min, 5 μM",UGT1A9,36.7%
Nc1ccc(S(=O)(=O)Nc2ccnn2-c2ccccc2)cc1 [sulphafenazole],inhibition at 100 µM,CYP2C9 (CYP2C6),19 to 48%
Cc1c(C)c2c(c(C)c1O)CCC(C)(COc1ccc(CC3SC(=O)NC3=O)cc1)O2 (centres unmarked) [troglitazone],"inhibition at 90 min, 250 μM",UGT1A6 [1],61.8%
same,"inhibition at 90 min, 250 μM",UGT1A6 [2],17.3%
same,"inhibition at 90 min, 250 μM",UGT1A6 [3],68.6%
